Measured values taken from patent US20220143143A1, “USE OF ACTIVATORS OF THE ARYL HYDROCARBON RECEPTOR FOR TREATING GLUTEN-INDUCED GASTROINTESTINAL DISEASES” (McMaster University, priority 2019, published 2022).

What was measured:
Assay type in all cases: in vivo
NOD/DQ8 mice [1] = test: Histology and immunohistochemistry of proximal small intestine (V/C ratios, CD3+ IEL counts); conditions: gluten treated NOD/DQ8 mice; 1 μg/mouse i.p. at day 1, 10, 20 and 30; vs vehicle (DMSO)
Procedure: For histology and immunohistochemistry studies, cross-sections of the proximal small intestine were fixed in 10% formalin and embedded in paraffin. Enteropathy was determined by measuring villus-to-crypt (V/C) ratios in a blinded fashion. The presence of IELs (intraepithelial lymphocytes) in the sections was determined by immunostaining for CD3+ cells. Briefly, sections were stained with polyclonal rabbit anti-mouse CD3 (Dako) and in each section, and intraepithelial lymphocytosis was determined by counting CD3+ IELs per 20 enterocytes in five randomly chosen villus tips.

NOD/DQ8 mice [2] = test: Fecal lipocalin-2 quantification; conditions: gluten treated NOD/DQ8 mice; 1 μg/mouse i.p. at day 1, 10, 20 and 30; vs vehicle (DMSO)
NOD/DQ8 mice [3] = test: Gut barrier function by Ussing chamber technique (jejunum); conditions: gluten treated NOD/DQ8 mice, 1 μg/mouse i.p. at day 1, 10, 20 and 30, vs vehicle (DMSO)
Procedure: Gut barrier function was assessed by a Ussing chamber technique. Briefly, sections of jejunum from each mouse were mounted in a Ussing Chamber with an opening of 0.6 cm^2. Net active transport across the epithelium was measured via a short circuit current response (Isc, μA) injected through the tissue under voltage-clamp conditions. Baseline Isc (μA/cm^2) was recorded at equilibrium 20 min after mounting jejunum sections. Mucosal-to-serosal transport of macromolecules was assessed by adding ^51Cr-EDTA in the luminal side of the chamber. ^51Cr-EDTA fluxes were calculated by measuring the proportion of radioactive ^51Cr-EDTA detected in the serosal side of the chamber after 2 hours compared to the radioactive ^51Cr-EDTA placed in the luminal side at the beginning of experiment.

AhR pathway genes = test: qPCR expression of AhR pathway and inflammation genes in duodenum; conditions: gluten treated NOD/DQ8 mice; 1 μg/mouse i.p. at day 1, 10, 20 and 30; vs vehicle (DMSO)
Procedure: AhR activation in duodenal biopsies was measured through qPCR to assess the expression of AhR pathway genes: AhR, CYP1A1, IL-22 and IL-17. IL-15 gene expression was also measured by qPCR as an inflammation marker. Total RNA was isolated from mouse duodenum samples using RNeasy Mini Kit (Qiagen, Hilden, Germany) with the DNase treatment, according to the manufacturer's instructions. RNA concentration was determined using a NanoDrop spectrophotometer […]. Quantitative RT-PCR was performed using iScript Reverse Transcriptase (Bio-Rad) and then a SsoFast EvaGreen Supermix (Bio-Rad) in a Mastercycler ep realplex apparatus (Eppendorf) with specific mouse oligonucleotides. Additional information on the primers used is available in Table 2. qPCR data were analyzed using the 2-ΔΔCt quantification method with mouse Gapdh as the endogenous control.

In the case of `O=Cc1c2c(cc3c1=Nc1ccccc1-3)=Nc1ccccc1-2` [Ficz, 6-formylindolo(3,2-b) carbazole], the IEL counts (NOD/DQ8 mice [1]) is reported as “improved”, the V/C ratios (NOD/DQ8 mice [1]) is reported as “improved” and the “other markers of overall gut inflammation (fecal lipocalin-2, FIG. 17)” value (NOD/DQ8 mice [2]) is reported as “improved”. The paracellular permeability (NOD/DQ8 mice [3]; 51Cr-EDTA) was “improved”, the ion transport (NOD/DQ8 mice [3]) was “improved” and the “intestinal IL-15 expression” value (AhR pathway genes) was “did not affect”. For the same compound, the “intestinal expression of AhR target genes (Cyp1a1, Il22, Il17)” value (AhR pathway genes) was “even higher expression”.
